The results in this text go back to PMC12728982, “Multichiral Half-Sandwich Ru(II) and Os(II) Anticancer Complexes Containing a Glutathione Synthesis Inhibitor” (Organometallics, 2025).

Some results are limits rather than exact numbers.

The test system of one data set is IGROV-1 cells. Nature of the data set: Comet assay (DNA damage in single cells). In kind it is cell-based, human. The note with it: IGROV-1, 24 h; 100 μM for Cisplatin and Os-Gly. The protocol:
Comet assays were carried out to determine whether the complexes caused DNA damage in single cells. […] Cisplatin DNA-adducts have been shown previously to inhibit DNA migration through electrophoresis presenting as less tail movement. […] Excess dye was removed, and cells were re-suspended in PBS. Samples were analysed by flow cytometry using the BD FACSMelodyTM Cell Sorter (R653880001) and data analysis on FlowJoTM v10 Software (BD Life Sciences).9 2.11 Apoptosis IGROV-1 cells (1 x 106) were seeded in a 6-well plate and incubated for 24 h at 310 K. Stock solutions (200 μM) of the complexes were prepared by dissolving the compound in 5% (v/v) DMSO followed by dilution with DMEM and then diluted to desired concentrations. All complexes (50 μM and 100 μM) were added to the wells and incubated for 24 h. Cell pellets were collected using 0.25% trypsin and centrifuged (500 x g, 5 mins at 277 K). Cell pellets were washed with PBS and then stained with the commercial Apoptosis Detection Kit-FITC Annexin V and PI (BioLegend; San Diego, USA), as per manufacturer's instructions. Briefly, a staining solution of FITC Annexin V (1 unit/100 μL) diluted 1 in 100 and 1 μg/mL PI was added to the cells (30 min, room temperature). Excess dye was removed, and cells were re-suspended in PBS. Samples were analysed by flow cytometry using the BD FACSMelodyTM Cell Sorter (R653880001) and data analysis on FlowJoTM v10 Software (BD Life Sciences).9 2.12 Comet assay IGROV-1 cells (8×10^5 cells per well) were seeded into 6-well plates and incubated for 24 h. Test compounds (50 μM and 100 μM) were added to the wells and incubated at 3 10 K for 24 h. Cells were enzymatically detached using trypsin and cell concentration adjusted to 2×10^4 cells /mL in ice-cold PBS. 0.4 mL of cell suspension was added to 1.2 mL of 1% low melting point agarose in H 2O, then immediately added to microscope slides pre -coated in 1% agarose. […] Twenty comet images per sample were taken by confocal microscopy and analysed by OpenComet. […]

The subject of data set [1] is IGROV-1 ovarian carcinoma cells. The data set can be described thus: Antiproliferative activity, SRB assay. It counts as cell-based, human. The following applies: for IC50: IGROV-1, SRB assay, 24 h treatment, 72 h recovery. The protocol: (§1) The antiproliferative activity against human A549 lung, IGROV-1 ovarian, and HeLa cervical cancer cell lines and MRC5 normal lung fibroblasts was determined by the sulforhodamine B (SRB) assay. […] IGROV-1 is known to be cisplatin-sensitive and subject to hypermutation.
(§2) 2.8 Mammalian cell culture
(§3) The human ovarian cancer cell line, IGROV-1; the human cervical cancer cell line, HeLa; the human […]; and the human non-cancerous lung fibroblast cell line, MRC5 were cultured in DMEM supplemented with 10% FBS and 100 units/mL of penicillin and 100 µg/mL of streptomycin (1x pen/strep). All cell lines were incubated at 310 K with 5% CO2 and 95% humidity for routine maintenance and during drug treatment.
(§4) 2.9 Sulforhodamine (SRB) cytotoxicity assay
(§5) Cells were seeded at 5 × 10^3 cells per well and incubated at 310 K for 48 h. Stock solutions (200 µM) of the complexes were prepared by dissolving the compound in 5% (v/v) DMSO followed by dilution with DMEM and serial dilutions with DMEM were prepared (0.1 µM-200 The cells were exposed to the drug for 24 h. The drug was then removed, and cells were allowed to recover for 72 h, in drug-free media. Cell viability was then determined by the SRB colorimetric assay. The solubilised dye absorbance was analysed on a microplate reader (Thermo Scientific Multiskan FC with Scanit software 4.1) at 470 nm. Data were normalized using Microsoft Excel, and dose-response curves fitted using Origin 2016. The IC50 values
Background: Sulforhodamine B stains cellular protein and so reports cell mass.

The test system of data set [2] is A549 lung carcinoma cells. The data set can be described thus: Antiproliferative activity, SRB assay. In kind it is cell-based, human. The note with it: A549; SRB assay, 24 h treatment, 72 h recovery. The protocol: as §1, §2, §3, §4, §5
Data set [3] relates to MRC-5 normal lung fibroblasts. The data set can be described thus: Antiproliferative activity, SRB assay. The following applies: for IC50: MRC-5, SRB assay, 24 h treatment, 72 h recovery. In kind it is cell-based, human. The protocol: as §1, §2, §3, §4, §5
Data set [4] relates to IGROV-1 human ovarian cancer cells. Nature of the data set: Cell cycle arrest by flow cytometry (PI). It counts as cell-based. The note with it: 24 h treatment; for Progression to G2/M: IGROV-1, 50 or 100 μM. The procedure:
2 Effect of Os/Ru-LBSO and glycine complexes at 50 or 100 μM on the phases of the cell cycle of IGROV-1 human ovarian cancer cells compared with untreated (control) cells. Percentage of cells in G1 (black bar, cell growth), S (gray, DNA synthesis), G2/M, (white, growth/mitosis) as determined by flow cytometry after 24 h treatment with complexes. […] Standard deviations calculated for N = 3 *p-value <0.05 comparing to untreated sample.
as §2
The human ovarian cancer cell line, IGROV-1; the human cervical cancer cell line, HeLa; the human […]; and the human non-cancerous lung fibroblast cell line, MRC5 were cultured in DMEM supplemented with 10% FBS and 100 units/mL of penicillin and 100 µg/mL of streptomycin (1x pen/strep). All cell lines were incubated at 310 K with 5% CO2 and 95% humidity for routine maintenance and during drug treatment. […]
IGROV-1 cells (1 x 10^6 cells per well) were seeded in a 6-well plate and incubated for 24 h at 310 K. Stock solutions (200 µM) of the complexes were prepared by dissolving the compound in 5% (v/v) DMSO followed by dilution with DMEM and then diluted to desired concentrations. All complexes (50 µM and 100 µM) were added to the wells and incubated for 24 h. Cell pellets were collected using 0.25% trypsin and centrifuged (500 x g, 5 mins at 4 °C). Then washed in PBS and fixed with 100% ice-cold ethanol for 20 min on ice. The ethanol […]
was aspirated, cells washed in ice-cold PBS and then stained with 0.2 mg/mL RNase, 0.05 mg/mL propidium iodide (PI) in PBS for 25 min in the dark and on ice. Excess dye was removed, and cells were re-suspended in PBS. Samples were analysed by flow cytometry using the BD
A general note: A flow cytometer gives signals particle by particle.

Data set [5] has as its system HeLa cervical adenocarcinoma cells. The data set can be described thus: Antiproliferative activity, SRB assay. The note with it: SRB assay, 24 h treatment, 72 h recovery. In kind it is cell-based, human. The procedure: as §1, §2, §3, §4
as §5, with “µM-200 µM).” for “µM-200”

Data set [6] has as its system intracellular GSH in IGROV-1 cells. The data set can be described thus: Glutathione colorimetric detection assay. In kind it is cell-based, human. The note with it: IGROV-1, 50 μM, 24 h. The procedure:
This lowering was not observed for Ru-LBSO which is not active in this cell line. Other papers have shown a similar result by including L-BSO as an additional agent, therefore showing L-BSO remains inhibitory.
Once the agarose had set , the slides were submerged in alkaline lysis solution (1.3 M NaCl, 100 mM Na2EDTA, 0.1% sodium lauryl sarcosinate, 0.26 M NaOH pH > 13) and incubated overnight at 277 K in the dark. The following day the slides were rinsed for 20 min three times in the electrophoresis solution ([…] NaOH, 2mM Na 2EDTA pH 12.3). The slides were then placed into the electrophoresis tank with fresh electrophoresis buffer, 1 -2 mm above the slides. Electrophoresis was run at 18.3 V for 25 min. Once electrophoresis was complete, slides were rinsed in distilled water and placed in 2.5 µg/mL PI for 20 min. After staining, cells were rinsed in distilled water to remove excess stain. Twenty comet images per sample were taken by confocal microscopy and analysed by OpenComet. 10
1 x 10^6 IGROV-1 cells were seeded in a 6-well plate and incubated for 24 h at 310 K. All complexes (50 µM and 100 µM) were added to the wells and incubated for 24 h. […]
Percentage of IGROV -1 cancer cells in non -apoptotic, apoptotic (early and late) or necrotic phases determined by flow cytometry after 24 h treatment with Os/Ru L -BSO and glycine complexes. […] Standard deviations calculated for N=3. […]

Data set [7] in a line: Aqueous stability / hydrolysis monitored by 1H NMR. In kind it is physicochemical. The following applies: 3:7 v/v methanol-d4:D2O, 310 K, 1H NMR.

One may read the IC50 as the concentration that gives 50% inhibition. A high value points to lower potency. For `[NH2][Pt]([NH2])([Cl])[Cl]` [CDDP, Cisplatin, reference compound], the “Comet tails vs untreated cells” value in the data set with IGROV-1 cells is given as “statistically significantly shorter comet tails”. Besides, the IC50 in data set [1] came out at 20 ± 4.8 µM; in data set [2], 3 ± 0.2 µM; in data set [3], 13.5 ± 0.9 µM.

Regarding `Cc1ccc(C(C)C)cc1.O=C1C[NH][Os]([Cl])[O]1` [Os-Gly, [(p-cymene)Os(Gly)Cl]], the “Progression to G2/M” value in data set [4] is recorded as “little progression to G2/M”. In the data set on IGROV-1 cells, the “Comet tails vs untreated cells” value is reported as “statistically significantly shorter comet tails”. Also, the IC50 in data set [1] was above 200 µM; in data set [2] it was above 200 µM; in data set [3], 107 ± 2 µM; in data set [5] it was above 200 µM.

On to `Cc1ccc(C(C)C)cc1.O=C1C[NH][Ru]([Cl])[O]1` [Ru-Gly, [(p-cymene)Ru(Gly)Cl]], for which the “Progression to G2/M” value in data set [4] is recorded as “little progression to G2/M”. The IC50 is above 200 µM in data set [1], above 200 µM in data set [2], 112 ± 4 µM in data set [3] and above 200 µM in data set [5].

In the case of [(p-cymene)Ru(L-BSO)Cl] [Ru-LBSO], the “G1 arrest (percentage of cells in G1)” value in data set [4] (IGROV-1, 100 μM, vs untreated) is recorded as “significantly increased”. In data set [1] (IGROV-1, SRB), the “Activity against IGROV-1” value is “not active”. Besides, the 50% inhibitory concentration (IC50) in data set [1] is 108 ± 8 µM; in data set [2] it was above 200 µM; in data set [3] it was 4.3 ± 0.7 µM; in data set [5], above 200 µM. Moreover, the “Activity toward normal lung cells” value in data set [3] (MRC-5, SRB) was “some activity”. The “Lowering of intracellular GSH level” value in data set [6] was “not observed”. In data set [7], this compound came in with a Time to hydrolysis of at most 15 min.
